Counter-ions that a name gives are not always drawn. Like-named read-outs stand apart in the source and are kept apart here.
Columns and labels:
CDK2:Cyclin-E = CDK2:Cyclin-E (Homo sapiens, UniProt P24941); assay: CDK2 Screening Assay (33P-ATP FlashPlate); type: biochemical; conditions: 10 μM ATP; >10 or >100 = less than 50% inhibition at highest concentration tested
Protocol: A kinase reaction mixture was prepared containing 50 mM Tris-HCl pH=8, 10 mM MgCl2, 0.1 mM Na3PO4, 1 mM DTT, 10 μM ATP, 0.025 μM biotinylated histone-H1 peptide substrate and 0.2 μCuries per well ^33P-γ-ATP (2000-3000 Ci/mmol). 70 μL of the kinase reaction mixture was dispensed into the well of a streptavidin coated FlashPlate™ (Cat. # SMP103, NEN, Boston, Mass.). Then 1 μL of test compound stock in 100% DMSO was added to the wells resulting in a final concentration of 1% DMSO in the reaction with a 100 μl final reaction volume. Next, CDK2:Cyclin-E protein was diluted in 50 mM Tris-HCl pH=8.0, 0.1% BSA at a concentration of 1 ng per μL and 30 μL (30 ng enzyme per test well) was added to each well to initiate the reaction. The reaction was incubated for one hour at 30° C. At the end of the 1 h incubation, the reaction was terminated by aspirating the mixture from the plate and washing the wells twice with PBS containing 100 mM EDTA. The histone-H1 biotinylated peptide substrate became immobilized on the Flashplate™ and the incorporation of ^33P-γ-ATP was measured by reading the plate on a scintillation counter. Inhibition of the enzymatic activity of CDK2 was measured by observing a reduced amount of ^33P-γ-ATP incorporated into the immobilized peptide. […]

[1] = system: HeLa cervical adenocarcinoma; assay: Inhibition of cell proliferation (14C-thymidine incorporation), HeLa; type: cell-based
Protocol: The ability of a test compound to inhibit the proliferation of cell growth was determined by measuring incorporation of ^14C-labelled thymidine into newly synthesized DNA within the cells. This method was used on cell lines derived from carcinomas originating from several tissues such as HeLa cervical adenocarcinoma (American Type Culture Collection (ATCC), Virginia, Cat. #CCL-2), A375 malignant melanoma (ATCC CRL-1619), and HCT-116 colon carcinoma (CCL-247). In this way the effect of a compound on cell growth of cells with many different phenotypes can be determined. Cells were trypsinized and counted and 3000-8000 cells were added to each well of a 96-well CytoStar tissue culture treated scintillating microplate (Amersham #RPNQ0160) in complete medium in a volume of 100 μl. Cells were incubated for 24 hours in complete medium at 37° C. in an atmosphere containing 5% CO2.
Next, 1 μl of test compound in 100% DMSO was added to the wells of the plate. DMSO only was added to control wells. Cells were incubated for 24 more hours in complete medium at 37° C. in an atmosphere containing 5% CO2. Methyl ^14C-thymidine 56 mCi/mmol (NEN #NEC568 or Amersham #CFA532) was diluted in complete medium and 0.2 uCi/well was added to each well of the CytoStar plate in a volume of 20 ul. The plate was incubated for 24 hours at 37° C. plus 5% CO2 in drug plus ^14C-thymidine. The contents of the plate were discarded into a ^14C radioactive waste container by inverting the plate and the plate was washed twice with 200 μl PBS.
200 μl of PBS was added to each well. The top of the plate was sealed with a transparent plate sealer and a white plate backing sealer (Packard #6005199) was applied to the bottom of the plate. The degree of methyl ^14C-thymidine incorporation was quantified on a Packard Top Count.

[2] = Standard Rat Pharmacokinetics (PK); type: in vivo; conditions: for Cmax: rat plasma; for bioavailability: plasma
Protocol: The conversion of prodrug to active form was evaluated using a standard rat PK protocol. The following procedure may be followed.
Rats were dosed intravenously (IV) at the level of 1.5-3 mg/kg and by oral gavage (PO) at the level of 10-30 mg/kg with prodrug candidate. For each study, four rats were used for IV dosing and four rats were used for PO dosing. Prodrug was typically formulated for IV dosing as a solution in 10% W/V solutol in 5% dextrose in sterile water vehicle (D5W). Prodrug was typically formulated for oral dosing as a uniform suspension in 0.5% methylcellulose vehicle. Blood samples (0.5 mL) were collected into heparinized tubes post dose via orbital sinus puncture. For IV dosing, blood samples were collected at 5, 15 and 30 mins, 1, 2, 4, 6, 8, and 24 hrs after the dosing. For PO dosing, blood samples were collected at 30 mins, 1, 2, 4, 6, 8 and 24 hrs. Blood samples were centrifuged for cell removal, and precisely 200 μL of plasma supernatant was then transferred to a clean vial, placed on dry ice, and subsequently stored in a −70° C. freezer prior to analysis. Results were calculated by WinNonlin Pro version 3.1. Plasma levels were determined and the oral and intravenous area under the concentration vs. time curve (AUC) were compared to determine the % bioavailability (% F) by the following formula: Dose(IV)*AUC(oral)/Dose (oral)*AUC(IV).

[3] = IV 3 mg/kg of prodrug, read-out: Prodrug Cmax (μM) IV
[4] = PO 30 mg/kg of prodrug, read-out: Prodrug Cmax (μM) PO
[5] = rat, IV/PO 3/30 mg/kg, Dose(IV)*AUC(oral)/Dose(oral)*AUC(IV)
[6] = rat, IV/PO 2/10 mg/kg, Dose(IV)*AUC(oral)/Dose(oral)*AUC(IV)
[7] = IV 2 mg/kg of prodrug, read-out: Prodrug Cmax (μM) IV
[8] = PO 10 mg/kg of prodrug, read-out: Prodrug Cmax (μM) PO

Row | IC50 (CDK2:Cyclin-E) | Cmax [2, 3] | IC50 ([1]; Homo sapiens) | bioavailability [2, 5] | bioavailability [2, 6] | Compound | other results
1 | 0.12 µM | 20.5 µM | 20.9 µM | 0% | – | Nc1nc(Nc2ccc(S(=O)(=O)NC(=O)CCN3CCOCC3)cc2)nn1C(=O)c1c(F)cccc1F [Compound 7, 4-[5-amino-1-(2,6-difluoro-benzoyl)-1H-[1,2,4]triazol-3-ylamino]-N-(3-morpholin-4-yl-propionyl)-benzenesulfonamide] | –
2 | 0.06 µM | 72.2 µM | 60.2 µM | 0.17% | – | CCOC(=O)CCC(=O)NS(=O)(=O)c1ccc(Nc2nc(N)n(C(=O)c3c(F)cccc3F)n2)cc1 [Compound 8, 4-{4-[5-amino-1-(2,6-difluoro-benzoyl)-1H-[1,2,4]triazol-3-ylamino]-benzenesulfonylamino}-4-oxo-butyric acid ethyl ester] | Cmax [2, 4]: 0.19 µM
3 | 0.44 µM | – | > 10 µM | – | 0% | COCCOCCOCC(=O)NS(=O)(=O)c1ccc(Nc2nc(N)n(C(=O)c3c(F)cccc3F)n2)cc1 [Compound 9, 4-[5-amino-1-(2,6-difluoro-benzoyl)-1H-[1,2,4]triazol-3-ylamino]-N-{2-[2-(2-methoxy-ethoxy)-ethoxy]-acetyl}-benzenesulfonamide] | –
4 | 0.3 µM | – | > 100 µM | – | 0% | COCCOCCOCC(=O)Nc1nc(Nc2ccc(S(N)(=O)=O)cc2)nn1C(=O)c1c(F)cccc1F [Compound 10, N-[2-(2,6-difluoro-benzoyl)-5-(4-sulfamoyl-phenylamino)-2H-[1,2,4]triazol-3-yl]-2-[2-(2-methoxy-ethoxy)-ethoxy]-acetamide] | Cmax [2, 7]: 67.3 µM
5 | 1.53 µM | – | > 100 µM | – | 0% | Nc1nc(Nc2ccc(S(=O)(=O)NC(=O)CCCC(=O)O)cc2)nn1C(=O)c1c(F)cccc1F [Compound 11, 5-{4-[5-amino-1-(2,6-difluoro-benzoyl)-1H-[1,2,4]triazol-3-ylamino]-benzenesulfonylamino}-5-oxo-pentanoic acid] | Cmax [2, 7]: 81.8 µM; Cmax [2, 8]: 0.346 µM
6 | 0.08 µM | – | 30.8 µM | – | 0% | Nc1nc(Nc2ccc(S(=O)(=O)NC(=O)COCCOCCOCC(=O)O)cc2)nn1C(=O)c1c(F)cccc1F [Compound 12, {2-[2-(2-{4-[5-amino-1-(2,6-difluoro-benzoyl)-1H-[1,2,4]triazol-3-ylamino]-benzenesulfonylamino}-2-oxo-ethoxy)-ethoxy]-ethoxy}-acetic acid.2TFA salt] | Cmax [2, 8]: 0.04 µM
7 | 0.14 µM | – | 4.02 µM | – | 0% | Nc1nc(Nc2ccc(S(=O)(=O)NC(=O)[C@@H](N)CO)cc2)nn1C(=O)c1c(F)cccc1F [Compound 13, 4-[5-amino-1-(2,6-difluoro-benzoyl)-1H-[1,2,4]triazol-3-ylamino]-N—((S)-2-amino-3-hydroxy-propionyl)-benzenesulfonamide] | Cmax [2, 7]: 8.15 µM
8 | 0.06 µM | – | 1.96 µM | – | 1% | C[C@@H](N)C(=O)NS(=O)(=O)c1ccc(Nc2nc(N)n(C(=O)c3c(F)cccc3F)n2)cc1 [Compound 14, 4-[5-amino-1-(2,6-difluoro-benzoyl)-1H-[1,2,4]triazol-3-ylamino]-N—((R)-2-amino-propionyl)-benzenesulfonamide] | Cmax [2, 7]: 11 µM; Cmax [2, 8]: 0.08 µM

Further lines, the compound ahead of its results:

Row | Compound | IC50 (CDK2:Cyclin-E) | Cmax [2, 3] | IC50 ([1]; Homo sapiens) | bioavailability [2, 5] | bioavailability [2, 6] | other results
9 | 4-[5-amino-1-(2,6-difluoro-benzoyl)-1H-[1,2,4]triazol-3-ylamino]-N-propionyl-benzenesulfonamide [Compound 20] | 0.28 µM | 33.5 µM | – | – | – | IC50 [1]: 58.8 µM; Cmax [2, 4]: 0.02 µM; % F [2, 5]: 0.34%
10 | Nc1nc(Nc2ccc(S(=O)(=O)NC(=O)CCC(=O)O)cc2)nn1C(=O)c1c(F)cccc1F [Compound 1, 4-{4-[5-amino-1-(2,6-difluoro-benzoyl)-1H-[1,2,4]triazol-3-ylamino]-benzenesulfonylamino}-4-oxo-butyric acid] | 0.07 µM | 47 µM | 31.9 µM | 1% | – | Cmax [2, 4]: 0.36 µM
11 | NCC(=O)NS(=O)(=O)c1ccc(Nc2nc(N)n(C(=O)c3c(F)cccc3F)n2)cc1 [Compound 2, N-(2-amino-acetyl)-4-[5-amino-1-(2,6-difluoro-benzoyl)-1H-[1,2,4]triazol-3-ylamino]-benzenesulfonamide] | 0.12 µM | – | 14.9 µM | – | – | bioavailability ([2]; rat, IV/PO 1.5/15 mg/kg, Dose(IV)*AUC(oral)/Dose(oral)*AUC(IV)): 0%; Cmax ([2]; IV 1.5 mg/kg of prodrug, read-out: Prodrug Cmax (μM) IV): 11.8 µM
12 | COCCOCC(=O)NS(=O)(=O)c1ccc(Nc2nc(N)n(C(=O)c3c(F)cccc3F)n2)cc1 [Compound 3, 4-[5-amino-1-(2,6-difluoro-benzoyl)-1H-[1,2,4]triazol-3-ylamino]-N-[2-(2-methoxy-ethoxy)-acetyl]-benzenesulfonamide] | 0.25 µM | 42.9 µM | > 10 µM | 2% | – | Cmax [2, 4]: 0.32 µM
13 | Nc1nc(Nc2ccc(S(=O)(=O)NC(=O)Cn3cnnn3)cc2)nn1C(=O)c1c(F)cccc1F [Compound 4, 4-[5-amino-1-(2,6-difluoro-benzoyl)-1H-[1,2,4]triazol-3-ylamino]-N-(2-tetrazol-1-yl-acetyl)-benzenesulfonamide] | 0.43 µM | 23.5 µM | > 100 µM | 0% | – | –
14 | CN1CCN(CCC(=O)NS(=O)(=O)c2ccc(Nc3nc(N)n(C(=O)c4c(F)cccc4F)n3)cc2)CC1 [Compound 5, 4-[5-amino-1-(2,6-difluoro-benzoyl)-1H-[1,2,4]triazol-3-ylamino]-N-[3-(4-methyl-piperazin-1-yl)-propionyl]-benzenesulfonamide] | 0.27 µM | – | > 100 µM | – | – | bioavailability ([2]; rat, IV/PO 1.7/17 mg/kg, Dose(IV)*AUC(oral)/Dose(oral)*AUC(IV)): 0%; Cmax ([2]; IV 1.7 mg/kg of prodrug, read-out: Prodrug Cmax (μM) IV): 23.2 µM
15 | CN(C)CC(=O)NS(=O)(=O)c1ccc(Nc2nc(N)n(C(=O)c3c(F)cccc3F)n2)cc1 [Compound 6, 4-[5-amino-1-(2,6-difluoro-benzoyl)-1H-[1,2,4]triazol-3-ylamino]-N-(2-dimethylamino-acetyl)-benzenesulfonamide] | 0.32 µM | 25.2 µM | > 10 µM | 0% | – | –
